Data published in article PMC10221469 (Viruses, 2023).

Tested on: SARS-CoV-2 pseudovirus (lentiviral vector, spike D614G)
Format: cell-based
Conditions: read-out: IC50 pseudovirus entry (luciferase output)

Row | SMILES | IC50 [nM]
1 | COc1cc(NCc2ccc3nc(N)nc(N)c3c2C)cc(OC)c1OC [Trimetrexate] | 225
2 | C#CCC(Cc1cnc2nc(N)nc(N)c2n1)c1ccc(C(=O)N[C@@H](CCC(=O)O)C(=O)O)cc1 (some centres unmarked) [Pralatrexate] | 12.1
